Columns and labels:
[1] = biological target: ^3H-oxotremorine-M binding (muscarinic receptors); experiment: 3H-oxotremorine-M binding study; details: inhibition of binding of ^3H-oxotremorine-M; read-out: inhibition constant (Ki)
m4 receptors = m4 receptors (Homo sapiens, UniProt P08173); assay type: cell-based; details: CHO m4 cells treated with pertussis toxin
D2 receptor subtype = D2 receptor subtype (Homo sapiens, UniProt P14416); experiment: pharmacological studies at the D2 receptor subtype
Chain of D2 receptor subtype (P14416 whole entry): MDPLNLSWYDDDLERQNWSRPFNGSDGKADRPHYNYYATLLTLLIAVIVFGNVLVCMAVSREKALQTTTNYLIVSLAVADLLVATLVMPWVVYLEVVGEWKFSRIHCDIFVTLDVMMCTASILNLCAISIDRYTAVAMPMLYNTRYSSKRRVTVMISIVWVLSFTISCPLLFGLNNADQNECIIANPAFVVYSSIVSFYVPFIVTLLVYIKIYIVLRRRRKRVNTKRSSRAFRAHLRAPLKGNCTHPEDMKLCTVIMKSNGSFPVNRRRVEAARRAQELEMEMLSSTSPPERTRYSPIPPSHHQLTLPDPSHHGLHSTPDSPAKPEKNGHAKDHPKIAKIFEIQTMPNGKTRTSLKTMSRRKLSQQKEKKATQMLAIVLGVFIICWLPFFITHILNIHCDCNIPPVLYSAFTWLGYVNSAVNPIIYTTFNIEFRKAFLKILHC

Chain of m4 receptors (P08173 whole entry): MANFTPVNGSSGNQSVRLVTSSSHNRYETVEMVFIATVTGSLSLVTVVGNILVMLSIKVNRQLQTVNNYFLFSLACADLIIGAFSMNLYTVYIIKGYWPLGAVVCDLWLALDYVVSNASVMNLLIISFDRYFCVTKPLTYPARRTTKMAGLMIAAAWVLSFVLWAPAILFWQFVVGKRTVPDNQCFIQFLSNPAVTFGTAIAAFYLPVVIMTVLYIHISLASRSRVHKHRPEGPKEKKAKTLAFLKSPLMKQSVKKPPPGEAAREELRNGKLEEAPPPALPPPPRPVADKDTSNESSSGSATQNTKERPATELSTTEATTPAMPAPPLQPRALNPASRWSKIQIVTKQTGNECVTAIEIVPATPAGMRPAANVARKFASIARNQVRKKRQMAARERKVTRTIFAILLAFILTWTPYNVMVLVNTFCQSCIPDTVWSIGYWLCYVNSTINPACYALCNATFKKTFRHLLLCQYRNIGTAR

Compound: CCCCCCOc1nsnc1C1=CCCN(C)C1 [xanomeline, 3-(4-hexyloxy-1,2,5-thiadiazol-3-yl)-1,2,5,6-tetrahydro-1-methylpyridine]
- Ki [1]: 2 nM
- formation of cAMP (m4 receptors): efficaciously and potently stimulated the formation of cAMP
- activity at the D2 receptor subtype (D2 receptor subtype): active
